Test results as given in patent publication US20260297070A1, “CYCLIC [COMPOUND LEFT OUT] WRN INHIBITORS” (Nimbus Wadjet, Inc., priority 2023, published 2026).

target: T1, human Werner helicase (WRN-BV08, Uniprot Q14191, amino acids 517-1235 with L1074F point mutation) (Homo sapiens, UniProt Q14191, L1074F); experiment: WRN (BV08) ADP-Glo Assay; format: biochemical; details: 0.15 nM WRN, 5 μM ATP, 0.1 nM DNA duplex, 15 min preincubation, 60 min at 25° C., pH 7.5, 1% DMSO; read-out: ADP-Glo_hWRN_IC50
T1 construct: Uniprot Q14191, amino acids 517-1235 with L1074F point mutation; TEV-cleavable 8×His (C, cleaved yes); made in house; host or cells: Sf9 insect cells (baculovirus)
How it was run: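 ADP-Glo luminescence read-out of ATP hydrolysis. Conditions: 0.15 nM WRN, 5 μM ATP, 0.1 nM DNA duplex, 1% DMSO, 60 min at 25 °C after 15 min compound preincubation. Max/min controls were DMSO and 20 μM NSC-617145; IC50 from four-parameter fit.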

T1 sequence (Q14191 with tags, fused parts or gaps L1074F limits assumed): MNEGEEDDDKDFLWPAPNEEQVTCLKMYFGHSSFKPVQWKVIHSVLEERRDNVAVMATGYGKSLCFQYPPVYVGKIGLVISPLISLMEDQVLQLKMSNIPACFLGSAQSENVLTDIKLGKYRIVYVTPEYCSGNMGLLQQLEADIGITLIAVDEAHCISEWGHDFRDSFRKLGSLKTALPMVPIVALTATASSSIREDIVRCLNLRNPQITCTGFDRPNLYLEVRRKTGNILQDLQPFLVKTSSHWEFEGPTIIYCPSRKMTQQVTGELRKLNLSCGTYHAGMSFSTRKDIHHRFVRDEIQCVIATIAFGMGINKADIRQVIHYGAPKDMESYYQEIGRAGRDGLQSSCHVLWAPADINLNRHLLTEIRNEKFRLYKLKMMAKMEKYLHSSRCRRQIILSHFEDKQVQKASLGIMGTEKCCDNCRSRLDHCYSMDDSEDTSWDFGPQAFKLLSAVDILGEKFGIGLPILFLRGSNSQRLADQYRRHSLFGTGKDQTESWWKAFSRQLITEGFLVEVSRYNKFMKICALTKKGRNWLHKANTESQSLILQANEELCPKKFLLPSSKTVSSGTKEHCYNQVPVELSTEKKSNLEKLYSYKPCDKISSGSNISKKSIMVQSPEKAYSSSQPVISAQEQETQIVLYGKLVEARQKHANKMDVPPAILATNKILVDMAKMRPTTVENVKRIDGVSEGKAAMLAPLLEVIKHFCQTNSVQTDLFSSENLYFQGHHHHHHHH

| Structure (SMILES) | IC50 [µM] |
| --- | --- |
| O=C(Cn1c(=O)n(C2=CCCCC2)c2ccccc21)N(Cc1ccncc1)C1C=CS(=O)(=O)C1 (centres unmarked) [I-680, 2-[3-(cyclohex-1-en-1-yl)-2-oxo-2,3-dihydro-1H-1,3-benzodiazol-1-yl]-N-(1,1-dioxo-2,3-dihydro-1lambda6-thiophen-3-yl)-N-[(pyridin-4-yl)methyl]acetamide] | > 50 |
| COc1cc(CN(C(=O)C(c2ccc(-c3ccc(F)c(F)c3)cc2F)n2cccn2)[C@@H]2C=CS(=O)(=O)C2)ccn1 (stereo partly drawn) [I-683, N-[(3R)-1,1-dioxo-2,3-dihydro-1lambda6-thiophen-3-yl]-N-[(2-methoxypyridin-4-yl)methyl]-2-(1H-pyrazol-1-yl)-2-{3,3′,4′-trifluoro-[1,1′-biphenyl]-4-yl}acetamide] | < 0.5 |
| COc1cc(CN(C(=O)Cc2ccc(S(F)(F)(F)(F)F)cc2)C2C=CS(=O)(=O)C2)cc(OC)n1 (centres unmarked) [I-684, N-[(2,6-dimethoxypyridin-4-yl)methyl]-N-(1,1-dioxo-2,3-dihydro-1lambda6-thiophen-3-yl)-2-[4-(pentafluoro-lambda6-sulfanyl)phenyl]acetamide] | 0.5 to 5 |
| COc1cc(CN(C(=O)C(OC2CCN(S(C)(=O)=O)CC2)c2ccc(-c3ccc(F)c(F)c3)cc2F)[C@@H]2C=CS(=O)(=O)C2)ccn1 (stereo partly drawn) [I-687, N-[(3R)-1,1-dioxo-2,3-dihydro-1lambda6-thiophen-3-yl]-2-[(1-methanesulfonylpiperidin-4-yl)oxy]-N-[(2-methoxypyridin-4-yl)methyl]-2-{3,3′,4′-trifluoro-[1,1′-biphenyl]-4-yl}acetamide] | 5 to 10 |
| CNC(=O)C(C(=O)N(Cc1ccnc(OC)c1)[C@@H]1C=CS(=O)(=O)C1)c1ccc(-c2ccc(F)c(F)c2)cc1F (stereo partly drawn) [I-688, N′-[(3R)-1,1-dioxo-2,3-dihydro-1lambda6-thiophen-3-yl]-N′-[(2-methoxypyridin-4-yl)methyl]-N-methyl-2-{3,3′,4′-trifluoro-[1,1′-biphenyl]-4-yl}propanediamide] | < 0.5 |
| COc1cc(CN(C(=O)C(OCC#N)c2ccc(-c3ccc(F)c(F)c3)cc2F)[C@@H]2C=CS(=O)(=O)C2)ccn1 (stereo partly drawn) [I-691, 2-(cyanomethoxy)-N-[(3R)-1,1-dioxo-2,3-dihydro-1lambda6-thiophen-3-yl]-N-[(2-methoxypyridin-4-yl)methyl]-2-{3,3′,4′-trifluoro-[1,1′-biphenyl]-4-yl}acetamide] | 0.5 to 5 |
| COc1cc(CN(C(=O)C(c2ccc(-c3ccc(F)c(F)c3)cc2F)n2cc(OC(F)F)cn2)[C@@H]2C=CS(=O)(=O)C2)ccn1 (stereo partly drawn) [I-695, 2-[4-(difluoromethoxy)-1H-pyrazol-1-yl]-N-[(3R)-1,1-dioxo-2,3-dihydro-1lambda6-thiophen-3-yl]-N-[(2-methoxypyridin-4-yl)methyl]-2-{3,3′,4′-trifluoro-[1,1′-biphenyl]-4-yl}acetamide] | < 0.5 |
| COc1ccc(CC(=O)N(Cc2ccncc2)C2C=CS(=O)(=O)C2)cc1OC(F)F (centres unmarked) [I-697, 2-[3-(difluoromethoxy)-4-methoxyphenyl]-N-(1,1-dioxo-2,3-dihydro-1lambda6-thiophen-3-yl)-N-[(pyridin-4-yl)methyl]acetamide] | > 50 |
| O=C(Cc1ncc(-c2ccc(F)c(F)c2)cc1F)N(Cc1ccnc(OC(F)F)c1)C1C=CS(=O)(=O)C1 (centres unmarked) [I-698, N-{[2-(difluoromethoxy)pyridin-4-yl]methyl}-2-[5-(3,4-difluorophenyl)-3-fluoropyridin-2-yl]-N-(1,1-dioxo-2,3-dihydro-1lambda6-thiophen-3-yl)acetamide] | 0.5 to 5 |
| COc1cc(CN(C(=O)Cn2cc3cc(C(F)(F)F)ccc3n2)[C@@H]2C=CS(=O)(=O)C2)ccn1 [I-699, N-[(3R)-1,1-dioxo-2,3-dihydro-1lambda6-thiophen-3-yl]-N-[(2-methoxypyridin-4-yl)methyl]-2-[5-(trifluoromethyl)-2H-indazol-2-yl]acetamide] | 0.5 to 5 |
| CC(C)(N)c1ccc(CN(C(=O)Cc2ccc(S(F)(F)(F)(F)F)cc2)C2C=CS(=O)(=O)C2)cc1 (centres unmarked) [I-700, N-{[4-(2-aminopropan-2-yl)phenyl]methyl}-N-(1,1-dioxo-2,3-dihydro-1lambda6-thiophen-3-yl)-2-[4-(pentafluoro-lambda6-sulfanyl)phenyl]acetamide] | 5 to 10 |
| COc1cc(CN(C(=O)C(c2ccc(-c3ccc(F)c(F)c3)cc2F)n2cc(C(F)F)cn2)[C@@H]2C=CS(=O)(=O)C2)ccn1 (stereo partly drawn) [I-705, 2-[4-(difluoromethyl)-1H-pyrazol-1-yl]-N-[(3R)-1,1-dioxo-2,3-dihydro-1lambda6-thiophen-3-yl]-N-[(2-methoxypyridin-4-yl)methyl]-2-{3,3′,4′-trifluoro-[1,1′-biphenyl]-4-yl}acetamide] | 0.5 to 5 |
| COc1cc(CN(C(=O)C(c2ccc(-c3ccc(F)c(F)c3)cc2F)n2cc(C#N)cn2)[C@@H]2C=CS(=O)(=O)C2)ccn1 (stereo partly drawn) [I-706, 2-(4-cyano-1H-pyrazol-1-yl)-N-[(3R)-1,1-dioxo-2,3-dihydro-1lambda6-thiophen-3-yl]-N-[(2-methoxypyridin-4-yl)methyl]-2-{3,3′,4′-trifluoro-[1,1′-biphenyl]-4-yl}acetamide] | 0.5 to 5 |
| COc1cc(CN(C(=O)C(OCCS(C)(=O)=O)c2ccc(-c3ccc(F)c(F)c3)cc2F)[C@@H]2C=CS(=O)(=O)C2)ccn1 (stereo partly drawn) [I-707, N-[(3R)-1,1-dioxo-2,3-dihydro-1lambda6-thiophen-3-yl]-2-(2-methanesulfonylethoxy)-N-[(2-methoxypyridin-4-yl)methyl]-2-{3,3′,4′-trifluoro-[1,1′-biphenyl]-4-yl}acetamide] | 0.5 to 5 |
| COc1cc(CN(C(=O)Cn2cc(-c3ccc(F)c(F)c3)c(C)n2)[C@@H]2C=CS(=O)(=O)C2)ccn1 [I-713, 2-[4-(3,4-difluorophenyl)-3-methyl-1H-pyrazol-1-yl]-N-[(3R)-1,1-dioxo-2,3-dihydro-1lambda6-thiophen-3-yl]-N-[(2-methoxypyridin-4-yl)methyl]acetamide] | 10 to 50 |
| COc1ccc2c(c1)CCCC2C(=O)N(Cc1ccncc1)C1C=CS(=O)(=O)C1 (centres unmarked) [I-717, N-(1,1-dioxo-2,3-dihydro-1lambda6-thiophen-3-yl)-6-methoxy-N-[(pyridin-4-yl)methyl]-1,2,3,4-tetrahydronaphthalene-1-carboxamide] | > 50 |
| O=C(Cn1cc(-c2ccc(F)c(F)c2)cn1)N(Cc1nc(C2CC2(F)F)cs1)C1C=CS(=O)(=O)C1 (centres unmarked) [I-718, N-{[4-(2,2-difluorocyclopropyl)-1,3-thiazol-2-yl]methyl}-2-[4-(3,4-difluorophenyl)-1H-pyrazol-1-yl]-N-(1,1-dioxo-2,3-dihydro-1lambda6-thiophen-3-yl)acetamide] | < 0.5 |
| COCCOc1cc(CN(C(=O)Cc2ccc(S(F)(F)(F)(F)F)cc2)C2C=CS(=O)(=O)C2)ccn1 (centres unmarked) [I-719, N-(1,1-dioxo-2,3-dihydro-1lambda6-thiophen-3-yl)-N-{[2-(2-methoxyethoxy)pyridin-4-yl]methyl}-2-[4-(pentafluoro-lambda6-sulfanyl)phenyl]acetamide] | < 0.5 |
| COc1cc(CN(C(=O)Cn2cc3cc(OC(F)(F)F)ccc3n2)[C@@H]2C=CS(=O)(=O)C2)ccn1 [I-720, N-[(3R)-1,1-dioxo-2,3-dihydro-1lambda6-thiophen-3-yl]-N-[(2-methoxypyridin-4-yl)methyl]-2-[5-(trifluoromethoxy)-2H-indazol-2-yl]acetamide] | 0.5 to 5 |
| COc1cc(CN(C(=O)Cn2ncc3cc(OC(F)(F)F)ccc32)[C@@H]2C=CS(=O)(=O)C2)ccn1 [I-721, N-[(3R)-1,1-dioxo-2,3-dihydro-1lambda6-thiophen-3-yl]-N-[(2-methoxypyridin-4-yl)methyl]-2-[5-(trifluoromethoxy)-1H-indazol-1-yl]acetamide] | 0.5 to 5 |
| COc1cc(CN(C(=O)Cn2nc(C)c3cc(C(F)(F)F)ccc32)[C@@H]2C=CS(=O)(=O)C2)ccn1 [I-722, N-[(3R)-1,1-dioxo-2,3-dihydro-1lambda6-thiophen-3-yl]-N-[(2-methoxypyridin-4-yl)methyl]-2-[3-methyl-5-(trifluoromethyl)-1H-indazol-1-yl]acetamide] | > 50 |
| O=C(Cn1cc(-c2ccc(F)c(F)c2)cn1)N(Cc1nc([C@@H]2C[C@H]2F)cs1)C1C=CS(=O)(=O)C1 (stereo partly drawn) [I-723, 2-[4-(3,4-difluorophenyl)-1H-pyrazol-1-yl]-N-(1,1-dioxo-2,3-dihydro-1lambda6-thiophen-3-yl)-N-({4-[(1S,2R)-2-fluorocyclopropyl]-1,3-thiazol-2-yl}methyl)acetamide] | < 0.5 |
| O=C(Cn1cc(-c2ccc(F)c(F)c2)cn1)N(Cc1nc([C@H]2C[C@H]2F)cs1)C1C=CS(=O)(=O)C1 (stereo partly drawn) [I-724, 2-[4-(3,4-difluorophenyl)-1H-pyrazol-1-yl]-N-(1,1-dioxo-2,3-dihydro-1lambda6-thiophen-3-yl)-N-({4-[(1R,2R)-2-fluorocyclopropyl]-1,3-thiazol-2-yl}methyl)acetamide] | < 0.5 |
| O=C(Cc1ccc(S(F)(F)(F)(F)F)cc1)N(Cc1ccnc(OC(F)(F)F)c1)C1C=CS(=O)(=O)C1 (centres unmarked) [I-725, N-(1,1-dioxo-2,3-dihydro-1lambda6-thiophen-3-yl)-2-[4-(pentafluoro-lambda6-sulfanyl)phenyl]-N-{[2-(trifluoromethoxy)pyridin-4-yl]methyl}acetamide] | 0.5 to 5 |
| O=C(Cn1cc(-c2ccc(F)c(F)c2)cn1)N(Cc1nc(C2(F)CC2)cs1)C1C=CS(=O)(=O)C1 (centres unmarked) [I-726, 2-[4-(3,4-difluorophenyl)-1H-pyrazol-1-yl]-N-(1,1-dioxo-2,3-dihydro-1lambda6-thiophen-3-yl)-N-{[4-(1-fluorocyclopropyl)-1,3-thiazol-2-yl]methyl}acetamide] | < 0.5 |
| N#CC1=CC(N(Cc2ccccc2)C(=O)Cc2ccc(-c3ccc(F)cc3)cc2)CS1(=O)=O (centres unmarked) [I-728, N-benzyl-N-(5-cyano-1,1-dioxo-2,3-dihydro-1lambda6-thiophen-3-yl)-2-{4′-fluoro-[1,1′-biphenyl]-4-yl}acetamide] | 0.5 to 5 |
